Data taken from patent US20190185479A1, “BICYCLIC NITROGENATED HETEROCYCLIC COMPOUND” (MITSUBISHI TANABE PHARMA CORPORATION, priority 2016, published 2019).

Biological target: T1, Human PDE7B (hPDE7B) (Homo sapiens, UniProt Q9NP56)
T1 construct: made in house; host or cells: COS-7 cells
Experiment: Measurement of PDE7 inhibitory activity (Experimental Example 1; residual cAMP, LANCE Ultra cAMP TR-FRET)
Format: biochemical
Conditions: for IC50: cAMP 3 nmol/L, room temperature 60 minutes; for inhibition at 1 µM: compound at 1 μmol/L
Procedure: Human PDE7B (hPDE7B) was isolated from COS-7 cells transfected with plasmids encoding hPDE7B according to the method described in a reference, Biochemical and Biophysical Research Communication, 271, p. 575-583 (2000). The resulting enzyme solution was used in the PDE assay.
PDE7 inhibitory assay was carried out by reacting the mixture of a compound, hPDE7B, and cAMP, and measuring the residual cAMP by a detection method using LANCE (registered trademark) Ultra cAMP Detection Kit (ParkinElmer). The compound was dissolved in DMSO, and diluted so that the concentration would become 50 times of the final concentration. The hPDE7B and cAMP were diluted with an assay buffer (50 mmol/L Tris-HCl, 1 mmol/L MgCl2, 0.1% BSA, 0.5 mmol/L DTT, pH7.5) so that the hPDE7B would have an appropriate enzyme activity and the concentration of cAMP would become 6 nmol/L. To a 96 well plate were added the compound (2 μL) (DMSO final concentration: 2%), hPDE7B (48 μL), and cAMP (50 μL) (concentration at the reaction: 3 nmol/L), and the resulting mixture was reacted at room temperature for 60 minutes. The reaction solution (20 μL) was subjected to a TR-FRET method according to the protocol specified by the kit to measure the concentration of the residual cAMP. In the assay, to a tracer solution specified by the kit was added 0.5 mmol/L of 3-isobutyl-1-methylxanthine (IBMX, nonselective PDE inhibitor) in order to stop the PDE enzyme reaction after the completion of reaction until the measurement.
The reaction without a compound was defined as “0% inhibition”, the reaction without hPDE7B was defined as “100% inhibition”, and the inhibition rate of the compound was calculated by the following equation.
Inhibition rate of compound (%)={(Residual cAMP concentration at the addition of compound−Residual cAMP concentration in 0% inhibition)/(Residual cAMP concentration in 100% inhibition−Residual cAMP concentration in 0% inhibition)}×100

T1 sequence (Q9NP56 whole entry): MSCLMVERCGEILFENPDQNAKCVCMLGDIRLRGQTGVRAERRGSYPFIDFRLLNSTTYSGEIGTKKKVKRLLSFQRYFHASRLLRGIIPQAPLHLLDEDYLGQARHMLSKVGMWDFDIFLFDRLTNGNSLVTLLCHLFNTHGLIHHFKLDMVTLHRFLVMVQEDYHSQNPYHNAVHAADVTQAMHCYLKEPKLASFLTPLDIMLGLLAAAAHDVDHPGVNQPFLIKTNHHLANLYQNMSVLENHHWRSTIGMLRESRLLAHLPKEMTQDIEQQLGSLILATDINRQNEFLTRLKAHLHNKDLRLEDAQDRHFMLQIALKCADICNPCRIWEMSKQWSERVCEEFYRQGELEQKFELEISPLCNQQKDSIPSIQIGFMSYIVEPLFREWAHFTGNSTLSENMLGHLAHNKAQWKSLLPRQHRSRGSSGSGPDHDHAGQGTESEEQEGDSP

Compound	IC50 [µM]	inhibition at 1 µM [%]
Nc1nccn2c(C3CCCC(C(F)(F)F)C3)nnc12 (single isomer, unassigned) [Example 211, 3-[cis-3-(trifluoromethyl)cyclohexyl][1,2,4]triazolo[4,3-a]pyrazin-8-amine]	> 1	20
Nc1nccn2c(C3CC(C(F)(F)F)CC(F)(F)C3)nnc12 (stereo not drawn) [Example 157]	0.92	–
C[C@@H]1CCC[C@@H](C)N1c1nnc2c(N)nccn12 [Example 63]	0.304	–
CC1CC(c2nnc3c(N)nccn23)CC(F)(F)C1 (single isomer, unassigned) [Example 217, 3-(trans-3,3-difluoro-5-methylcyclohexyl[1,2,4]triazolo[4,3-a]pyrazin-8-amine]	0.1	–
C[C@H]1CCC[C@H](c2nnc3c(N)nccn23)C1 (racemic) [Example 143, 3-(trans-3-methylcyclohexyl) [1,2,4]triazolo[4,3-a]pyrazin-8-amine]	0.05	–
Nc1nccn2c(C3CCC(F)(F)CC3)nnc12 [Example 150]	0.13	–
C[C@H]1CCC[C@H](C)N1c1nnc2c(N)nccn12 [Example 64]	0.107	–
CC1CC(c2nnc3c(N)nccn23)CC(F)(F)C1 (stereo not drawn) [Example 154]	0.11	–
Nc1nccn2c(N3CCCC(c4ccccc4)C3)nnc12 (stereo not drawn) [Example 49]	0.26	–
Nc1nccn2c(N3CCCCC3c3ccccc3)nnc12 (stereo not drawn) [Example 41]	0.29	–
Nc1nccn2c(N3CCC4(CC3)CC4)nnc12 [Example 78]	0.14	–
CC1CCC(C)N(c2nnc3c(N)ncc(C#N)n23)C1 (single isomer, unassigned) [Example 235, 8-amino-3-(2,5-dimethylpiperidin-1-yl) [1,2,4]triazolo[4,3-a]pyrazine-5-carbonitrile]	0.016	–
CC1(C)CCCC(c2nnc3c(N)ncnn23)C1 (single isomer, unassigned) [Example 243, 3-(3,3-dimethylcyclohexyl) [1,2,4]triazolo[3,4-f][1,2,4]triazin-8-amine]	0.12	–
CC1CCCCC1c1nnc2c(N)ncnn12 (single isomer, unassigned) [Example 239, 3-(cis-2-methylcyclohexyl) [1,2,4]triazolo[3,4-f][1,2,4]triazin-8-amine]	0.11	–
Nc1nccn2c(N3CCCCC3Cc3ccccc3)nnc12 (stereo not drawn) [Example 40]	0.73	–
C[C@@H](c1ccc(F)cc1)n1nnc2c(N)ncnc21 [Example 16]	0.35	–
CN1CCCCC1c1nnc2c(N)nccn12 (racemic) [Example 249, 3-(1-methylpiperidin-2-yl)-[1,2,4]triazolo[4,3-a]pyrazin-8-amine]	0.74	–
CC1CCC(C)(C)CN1c1nnc2c(N)nccn12 (racemic) [Example 65, 3-(2,5,5-trimethylpiperidin-1-yl) [1,2,4]triazolo[4,3-a]pyrazin-8-amine]	< 0.01	–

Compound	IC50 [µM]	inhibition at 1 µM [%]
CC1(C)CCN(c2nnc3c(N)nccn23)CC1 [Example 51]	0.11	–
Nc1ncnc2c1nnn2C12CC3CC(CC(C3)C1)C2 [Example 10]	0.1	–
CC(c1ccccc1)n1nnc2c(N)ncnc21 (stereo not drawn) [Example 15]	0.57	–
CC1(C)CCCC(c2nnc3c(N)ncnn23)C1 (racemic) [Example 73, 3-(3,3-dimethylcyclohexyl) [1,2,4]triazolo[3,4-f][1,2,4]triazin-8-amine]	0.001	–
CCC1CCCCN1c1nnc2c(N)nccn12 (racemic) [Example 23, 3-(2-ethylpiperidin-1-yl) [1,2,4]triazolo[4,3-a]pyrazin-8-amine]	0.04	–
Nc1nccn2c(C3CCCC(C(F)(F)F)C3)nnc12 (stereo not drawn) [Example 147]	0.7	–
Nc1ncnc2c1nnn2-c1c(F)cccc1F [Example 14]	0.56	–
CC1CCC(C)N(c2nnc3c(N)ncc(C#N)n23)C1 (racemic) [Example 60, 8-amino-3-(2,5-dimethylpiperidin-1-yl) [1,2,4]triazolo[4,3-a]pyrazine-5-carbonitrile]	< 0.01	–
CC1CCC(C(F)(F)F)CC1c1nnc2c(N)nccn12 (racemic) [Example 151, 3-[2-methyl-5-(trifluoromethyl)cyclohexyl][1,2,4]triazolo[4,3-a]pyrazin-8-amine]	0.01	–
Nc1nccn2c(N3CCCCCCC3)nnc12 [Example 30]	0.39	–
Nc1nccn2c(C3CC(F)(F)C3)nnc12 [Example 84, 3-(3,3-difluorocyclobutyl)-[1,2,4]triazolo[4,3-a]pyrazin-8-amine]	0.73	–
CC1CCC(F)(F)CC1c1nnc2c(N)ncnn12 (single isomer, unassigned) [Example 247, 3-(cis-5,5-difluoro-2-methylcyclohexyl) [1,2,4]triazolo[3,4-f][1,2,4]triazin-8-amine]	0.629	–
COC(=O)N1CCCCC1c1nnc2c(N)nccn12 (racemic) [Example 251, methyl 2-(8-amino-[1,2,4]triazolo[4,3-a]pyrazin-3-yl)-piperidine-1-carboxylate]	0.62	–
CC1CCCN(c2nnc3c(N)nccn23)C1C (single isomer, unassigned) [Example 56, 3-(2,3-dimethylpiperidin-1-yl) [1,2,4]triazolo[4,3-a]pyrazin-8-amine]	0.19	–
CC1CCC(F)(F)CC1c1nnc2c(N)nccn12 (racemic) [Example 152, 3-(cis-5,5-difluoro-2-methylcyclohexyl) [1,2,4]triazolo[4,3-a]pyrazin-8-amine]	< 0.01	–
Nc1nccn2c(N3CCCC(F)C3)nnc12 (stereo not drawn) [Example 27]	0.32	–
CCC1CCN(c2nnc3c(N)nccn23)CC1 [Example 50]	0.52	–

More lines, now with the values ahead:

IC50 [µM]	inhibition at 1 µM [%]	Compound
0.85	–	Nc1ncnn2c(C3CCCC(C(F)(F)F)C3)nnc12 (single isomer, unassigned) [Example 245, 3-[cis-3-(trifluoromethyl)cyclohexyl][1,2,4]triazolo[3,4-f][1,2,4]triazin-8-amine]
0.43	–	CC1CCCCC1n1nnc2c(N)ncnc21 (single isomer, unassigned) [Example 193, 3-(trans-2-methylcyclohexyl)-3H-[1,2,3]triazolo[4,5-d]pyrimidin-7-amine]
0.95	–	Nc1ncnc2c1nnn2C1CCCCC1C(F)(F)F (racemic) [Example 96]
> 1	20	Nc1ncnc2c1nnn2C1CCCC(C(F)F)C1 (single isomer, unassigned) [Example 201]
0.36	–	Nc1ncnc2c1nnn2[C@H]1CCCOC1 [Example 91]
0.33	–	CC(C)[C@H]1CC[C@H](C)[C@H](n2nnc3c(N)ncnc32)C1 [Example 134, 3-[(1R,2S,5S)-2-methyl-5-(propan-2-yl)cyclohexyl]-3H-[1,2,3]triazolo[4,5-d]pyrimidin-7-amine]
0.46	–	Nc1ncnc2c1nnn2C1CCc2ccccc2C1 (stereo not drawn) [Example 34]
0.25	–	Nc1ncnc2c1nnn2[C@H]1CC[C@@H](C(F)(F)F)CC1 [Example 102]
0.22	–	CC1CCCCC1n1nnc2c(N)ncnc21 (single isomer, unassigned) [Example 190, 3-(cis-2-methylcyclohexyl)-3H-[1,2,3]triazolo[4,5-d]pyrimidin-7-amine]
0.06	–	CC1CCCC(n2nnc3c(N)ncnc32)C1 (racemic) [Example 94, 3-(trans-3-methylcyclohexyl)-3H-[1,2,3]triazolo[4,5-d]pyrimidin-7-amine]
0.07	–	CC1CCCC(n2nnc3c(N)ncnc32)C1 (single isomer, unassigned) [Example 198, 3-(trans-3-methylcyclohexyl)-3H-[1,2,3]triazolo[4,5-d]pyrimidin-7-amine]
< 0.01	–	Nc1ncnn2c(C3CCCC(C(F)(F)F)C3)nnc12 (single isomer, unassigned) [Example 74, 3-[cis-3-(trifluoromethyl)cyclohexyl][1,2,4]triazolo[3,4-f][1,2,4]triazin-8-amine]
0.68	–	Nc1ncnc2c1nnn2[C@@H]1CCCN(c2ccccc2)C1 [Example 136, 3-[(3R)-1-phenylpiperidin-3-yl]-3H-[1,2,3]triazolo[4,5-d]pyrimidin-7-amine]
0.04	–	Nc1nccn2c(C3CCCC(C(F)(F)F)C3)nnc12 (racemic) [Example 146, 3-[cis-3-(trifluoromethyl)cyclohexyl][1,2,4]triazolo[4,3-a]pyrazin-8-amine]
0.67	–	CC(C)[C@@H]1CC[C@@H](C)[C@@H](n2nnc3c(N)ncnc32)C1 [Example 132, 3-[(1S,2R,5R)-2-methyl-5-(propan-2-yl)cyclohexyl]-3H-[1,2,3]triazolo[4,5-d]pyrimidin-7-amine]
0.08	–	CCC1CCCC(n2nnc3c(N)ncnc32)C1 (stereo not drawn) [Example 117]
0.04	–	CC1CCCCC1n1nnc2c(N)ncnc21 (racemic) [Example 95, 3-(cis-2-methylcyclohexyl)-3H-[1,2,3]triazolo[4,5-d]pyrimidin-7-amine]
